The text below walks through data of article PMC10675445, “Enolase Inhibitors as Early Lead Therapeutics against Trypanosoma brucei” (Pathogens, 2023).

The term IC50 denotes the point on the concentration scale where inhibition reaches its midpoint. Broadly, the EC50 is the concentration giving half of the maximal effect.

Structures are written as SMILES. Where two headings read alike, the source gives them in different places. Bounds are passed on as bounds.

One series deals with HsENO2. Also on record: method as in PMID 33230295. The settings on record: cited from earlier work; for IC50: included for comparative purposes, source not given.
Another series concerns T. brucei BSF parasites. In words: BSF viability assay (CellTiter Blue). The series is classed as cell-based, Trypanosoma brucei brucei. How it is done: (§1) Trypanosome growth, viability assays, and Western blotting—T. brucei brucei 90-13 BSF parasites were cultured in HMI-9 medium supplemented with 10% heat-inactivated FBS and 10% Serum Plus (Sigma-Aldrich, St. Louis, MO, USA) at 37 °C in 5% CO2, while T. brucei brucei PF 29-13 were cultured in SDM-79 supplemented with 10% heat-inactivated FBS [16]. For BSF viability assays, parasites (1 × 10^5/mL) were seeded into 384-well black polystyrene plates in the presence of a compound or equivalently diluted carrier. CellTiter Blue reagent (Promega, Madison, WI, USA) was added after two days of culture, the plates incubated an additional 1 h, and fluorescence emission at A585 measured after excitation at A546. For PF viability assays, 1 × 10^6 parasites in standard medium, or 5 × 10^6 parasites in glucose-free medium, were introduced into black 96-well plates in standard culture medium in the presence of a compound or carrier, with CellTiter Blue reagent added after 48 h of culture. Plates were incubated for 1 h and fluorescence emission scored as described for BSF. Fluorescence values were used to calculate percent cell growth inhibition (based on controls) for each concentration of compound tested. Averages of the triplicates were calculated and fit to dose-response curves for the determination of EC50 values, using Prism 9.0 (GraphPad Software, San Diego, CA, USA).

The target in another series is T. brucei ENO (TbENO) (Trypanosoma brucei brucei, UniProt Q38BV6). As to the kind of experiment: Recombinant TbENO coupled enzyme assay. The series is classed as biochemical. Here is the method:
Recombinant ENO and ENO Assays—Recombinant TbENO was expressed and purified using an approach modified from the purification of another trypanosome glycolytic enzyme. Briefly, the full-length open reading frame was cloned from Trypanosoma brucei brucei (a 427 strain) genomic DNA into the bacterial expression vector pQE-30 (Qiagen, MD, USA). This plasmid was transformed into M15pREP cells and protein expression induced with 0.25 mM isopropyl-b-d-1-thiogalactopyranoside (IPTG) overnight at 37 °C. Protein was purified on Ni-NTA agarose (Qiagen) as described.
ENO assays were performed in triplicate using a coupled reaction to measure enzyme activity. In short, enzyme (~50 nM) in assay buffer (100 mM HEPES, pH 8.0, 3.3 mM MgSO4, 120 mM KCl, 1.75 mM ADP, 1 U of pyruvate kinase/lactate dehydrogenase, and 0.4 mM NADH) was added to black 96-well plates. Reactions were initiated by the addition of substrate (3.75 mM 2-PG) and the rate of reduction in fluorescence emission at A460 was measured after excitation at A360 to monitor NAD^+ production. Assays were scored on a Biotek Synergy H1 microplate reader and kinetic analyses were performed with Prism 9.0 (GraphPad Software, San Diego, CA, USA) using the Michaelis–Menten model. To assess the impact of different pH on enzyme activity, the HEPES […] in the standard buffer was replaced with Good’s buffers 2-morpholinoethanesulfonic acid (MES, pH 6.5), HEPES (pH 7.0 to pH 8.5), or sodium borate (pH 9.0). For assays involving inhibitors, compounds (in DMSO) were incubated with the enzyme in assay buffer (pH 8.0) for 15 min prior to initiation of the reaction. All assays were performed in triplicate with vehicle control (DMSO) included.

The next series has as its system ENO1-deficient tumors. The arrangement: method as in PMID 33230295. The settings on record: rodent model; cited from earlier work.
On the set-up of series [1]: method as in PMID 33230295. The following applies: mammalian animal models, including non-human primates; cited from earlier work.
Series [2] deals with BSF parasites (BSF pXS6-eYFP-PTS1). As to the kind of experiment: Imaging of BSF cell morphology. The series is classed as cell-based, Trypanosoma brucei. The following applies: 6 µM, 2.5 h. The text has this:
(§2) The following supporting information can be downloaded at: https://www.mdpi.com/article/10.3390/pathogens12111290/s1, Figure S1: Multiple sequence alignment of TbENO, HsENO2, and NfENO. Amino acid sequences of TbENO (Tb927.10.2890), HsENO2 (ENOG, P09104), and NfENO (NfTY_054390) were aligned using Clustal Omega (EMBL-EBI). Similar amino acids are indicated with (:) and absolute conservation of residues by (*). Figure S2: BSF morphology rapidly changes upon POMHEX treatment. For imaging, BSF (427 strain parasites) parasites bearing the transgene pXS6 AldoPTSeYFP (left) or PF pXS2 AldoPTSeYFP (PF 29-13) (right) for constitutive glycosomal expression of eYFP were cultured for 2.5 hr in DMSO vehicle or POMHEX (at 6 µM, a concentration equivalent to 10-fold the EC50 value). Cells were then washed, fixed (4% paraformaldehyde), and imaged on a on Leica 8 DMi8 microscope. Scale bar = 10 µm. Figure S3: The levels of the glycosome-resident protein aldolase change in response to POMHEX treatment. […] Western blots were visualized on a Analytik Jena UVP ChemStudio imager with Visual works imaging software and bands were quantitated using ImageJ. Percent change in aldolase amount was scored after normalization to loading by quantification of a prominent Coomassie-stained band (likely VSG). […] Cell viability was scored by propidium iodide exclusion, followed by analysis of 10,000 cells in the PC5.5 channel.

The subject of series [3] is BSF parasites. As to the kind of experiment: Propidium iodide exclusion viability (flow cytometry). The settings on record: 30 min. The series is classed as cell-based, Trypanosoma brucei. How it is done:
To monitor apoptotic-like responses, 5 × 10^6 parasites were collected, resuspended in fresh media containing 125 μM H2O2, 5 μM POMHEX, 50 μM POMHEX, 100 μM POMHEX, or equal volume of DMSO, and incubated at 37 °C in 5% CO2 for 30 min. Cells were washed once in PBS, resuspended in binding buffer (10 mM HEPES/NaOH, pH 7.4, 140 mM NaCl, 2.5 mM CaCl2) with propidium iodide (Enzo Life Sciences) and incubated for 15 min, followed by cytometry. Each experiment was performed with technical triplicates of biological triplicates. Median fluorescence intensity (MFI) was calculated, and Welch’s t-tests were performed (ns: not statistically significant, * p < 0.05, ** p < 0.01, *** p < 0.001).
For orientation: In flow cytometry, cells or beads pass a laser one at a time.

The next series has as its system PF parasites (PF 29-13). As to the kind of experiment: Imaging of PF cellular and glycosomal morphology. The settings on record: 6 µM, 2.5 h. The series is classed as cell-based, Trypanosoma brucei.
From the text: as §2

The subject of series [4] is BSF parasites. As to the kind of experiment: Trypanosome ROS assay (flow cytometry). The series is classed as cell-based, Trypanosoma brucei. The settings on record: 30 min, POMHEX 50 or 100 µM, H2O2 125 µM. Here is the method: BSF parasites (5 × 10^6 cells) were pelleted (800 × g, 10 min) then resuspended in PBS supplemented with 0.1% glucose (PBSg). Samples were treated with either ROS stain (Total Reactive Oxygen Species (ROS) Assay Kit 520 nm, Invitrogen) or DMSO and then incubated at 37 °C in 5% CO2 for 60 min. Samples were then treated with 125 μM H2O2, 50 μM POMHEX, 100 μM POMHEX, or equal volume DMSO, incubated for 30 min, and analyzed on a CytoFLEX flow cytometer (Beckman Coulter). Events (10,000) were recorded and analyzed using FCSexpress software. Median fluorescence intensity (MFI) was calculated, and Welch’s t-tests were performed (ns: not statistically significant, * p < 0.05, ** p < 0.01, *** p < 0.001). Each experiment was performed with biological triplicates in technical triplicates.

Another series relates to T. brucei aldolase. In words: Aldolase western blot of BSF lysates. The settings on record: POMHEX 6 µM, 2.5 h. The series is classed as cell-based, Trypanosoma brucei.
From the text: as §2
A general note: In western blotting, separated proteins are transferred to a membrane and probed.

Another series deals with T. brucei PF parasites. In words: PF viability assay (CellTiter Blue). The following applies: Trypanosoma brucei, 48 h. Format: cell-based. How it is done: as §1
(In general: Alamar Blue is a resazurin reagent that responds to reducing activity.)

The mark [5] stands for this setting: Trypanosoma brucei, 48 h, BSF, two days of culture, read-out: T. brucei BSF EC50.
[6] abbreviates: recombinant TbENO ~50 nM, pH 8.0, 15 min preincubation, 3.75 mM 2-PG, read-out: TbENO IC50.
[7] abbreviates: Trypanosoma brucei, 48 h, read-out: T. brucei BSF EC50, BSF, two days of culture.

T. brucei ENO (TbENO), sequence (Q38BV6 entry or part of it): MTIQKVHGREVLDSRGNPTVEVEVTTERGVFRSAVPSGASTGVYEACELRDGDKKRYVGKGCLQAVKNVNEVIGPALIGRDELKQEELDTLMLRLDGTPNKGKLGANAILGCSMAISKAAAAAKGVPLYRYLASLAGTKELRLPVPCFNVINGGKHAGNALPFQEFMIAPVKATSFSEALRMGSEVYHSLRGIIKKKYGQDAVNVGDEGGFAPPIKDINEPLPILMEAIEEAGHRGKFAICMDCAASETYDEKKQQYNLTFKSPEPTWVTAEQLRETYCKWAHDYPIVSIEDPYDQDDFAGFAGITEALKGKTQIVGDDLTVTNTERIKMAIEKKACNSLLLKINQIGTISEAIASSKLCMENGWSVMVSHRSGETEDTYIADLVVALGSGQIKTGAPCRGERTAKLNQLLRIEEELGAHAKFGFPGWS

As to `O=C1C(P(=O)(O)O)CCCCN1OCc1ccccc1` (stereo not drawn) [Benzyl-HEPTA], the IC50 in the series with HsENO2 and at T. brucei ENO (TbENO) (setting [6]) was over 10 µM in each case. Also, the EC50 in the series with T. brucei BSF parasites (setting [5]) is over 10 µM.
For `O=C1C(P(=O)(O)O)CCN1OCc1ccccc1` (stereo not drawn) [Benzyl-deoxy-SF2312], the half-inhibitory concentration (IC50) in the series on HsENO2 and on T. brucei ENO (TbENO) (setting [6]) was over 10 µM throughout. Further, the EC50 with T. brucei BSF parasites (setting [5]) is over 10 µM. Besides, at T. brucei ENO (TbENO) (at 10 µM), the “activity against TbENO at 10 µM” value is “not active”.
As to `O=C1C(P(=O)(O)O)CCCN1OCc1ccccc1` (stereo not drawn) [BenzylHEX], in the series with HsENO2, the “activity against ENO2 (in words)” value is listed as “not active” and the IC50 is over 10 µM. Also, the concentration for a half-maximal effect (EC50) with T. brucei BSF parasites (setting [5]) was over 10 µM. In addition, the IC50 on T. brucei ENO (TbENO) (setting [6]) was over 10 µM.
`O=C1C(P(=O)(O)O)CCN1O` (stereo not drawn) [Deoxy-SF2312, (1-hydroxy-2-oxopyrrolidin-3-yl) phosphonic acid]: the IC50 is 0.1 ± 0.04 µM in the series on HsENO2 and 0.6 ± 0.23 µM on T. brucei ENO (TbENO). Besides, the EC50 in the series with T. brucei BSF parasites (setting [7]) is over 10 µM.
Turning to `O=C1C(P(=O)(O)O)CCCCN1O` (stereo not drawn) [HEPTA, (1-hydroxy-2-oxoazepan-3-yl) phosphonic acid], the 50% inhibitory concentration (IC50) is 5.8 ± 0.88 µM with HsENO2 and over 10 µM at T. brucei ENO (TbENO). Further, the EC50 with T. brucei BSF parasites (setting [7]) is over 10 µM. On T. brucei ENO (TbENO), the “activity against TbENO (in words)” value is “not active”.
As for `O=C1C(P(=O)(O)O)CCCN1O` (stereo not drawn) [HEX, (1-hydroxy-2-oxopiperidin-3-yl) phosphonic acid], the results for the concentration for half-maximal inhibition (IC50) in the series on HsENO2 and on T. brucei ENO (TbENO) were 0.36 ± 0.04 µM and 2.1 ± 1.1 µM, respectively. The “efficacy against ENO1-deficient tumors” value in the series with ENO1-deficient tumors is reported as “curative”. Moreover, the concentration for a half-maximal effect (EC50) is 10 ± 1 µM with T. brucei BSF parasites (setting [7]); 10 ± 1.4 µM in the series on T. brucei BSF parasites (Trypanosoma brucei, read-out: T. brucei BSF EC50, HEX with formaldehyde, with 2 molar equivalent formaldehyde); over 10 µM in the series on T. brucei BSF parasites (read-out: T. brucei BSF EC50, BSF, two days of culture). Moreover, the tolerability entry in series [1] is recorded as “extremely well-tolerated”.
`CC(C)(C)C(=O)OCOP(=O)(OCOC(=O)C(C)(C)C)C1CCCN(O)C1=O` (stereo not drawn) [POMHEX]: the values for the 50% inhibitory concentration (IC50) in the series on HsENO2 and at T. brucei ENO (TbENO) (setting [6]) were over 10 µM and 2.8 ± 0.64 µM, respectively. Further, the EC50 with T. brucei BSF parasites (setting [5]) turned out to be 0.61 ± 0.08 µM; with T. brucei PF parasites (PF parasites cultured in glucose-free medium, read-out: PF EC50, glucose-free medium) it was 5 ± 0.14 µM; with T. brucei PF parasites (PF parasites cultured in standard (5 mM) glucose, read-out: PF EC50, standard glucose), 0.81 ± 0.07 µM. Further, the BSF cell morphology entry in series [2] is given as “rapid change to overall cell shape”. For the same compound, the “cell death by PI exclusion, 50 µM” value with BSF parasites [3] (50 µM) was “did not lead to increased cell death”. In addition, the “cell death by PI exclusion, higher concentration” value in the series on BSF parasites [3] (100 µM) is reported as “increased cell death”. The “PF cellular and glycosomal morphology” value in the series with PF parasites (PF 29-13) is reported as “remained largely unchanged”. Besides, in the series on BSF parasites [4], the “ROS levels compared to untreated parasites” value is “significant reduction in ROS levels”. Also, in the series on T. brucei aldolase, the “decrease of aldolase levels vs vehicle-treated cells” value is reported as 28%. Further, the “range of aldolase reduction in three other replicates” value in the series with T. brucei aldolase is 28-55%.
As to `CC(C)(C)C(=O)OCOP(=O)(OCOC(=O)C(C)(C)C)C1CC(O)N(O)C1=O` (stereo not drawn) [POMSF], the EC50 in the series with T. brucei BSF parasites (BSF, two days of culture, read-out: T. brucei BSF EC50) is 0.45 ± 0.1 µM.
In the case of `OO` [hydrogen peroxide, reference compound], the “ROS levels compared to untreated parasites” value with BSF parasites [4] is “increase in reactive species”.
